# Data: patent US20080090895A1, “Novel Pharmaceutical Composition And Their Uses Thereof For Controlling The Different Forms Of Addiction To Drugs” (Trimaran Limited, priority 2004, published 2008)
# Structures can show the parent of a compound that is named as a salt.
# How the values were obtained:
# male mice of OF1 strain [1] = experiment: Measurement of the analgesia by the hotplate test; format: in vivo
# Protocol: (§1) The animals used in this study are male mice of OF1 strain weighing about 20 g at the start of the experiments (Charles River, France). They live in an environment whose daily lighting cycle (07:30 h; 17:30 h) is constant throughout the year, and the temperature is maintained at about 22° C. The mice have free access to water and food, and the experiments are performed in accordance with the international rules on ethics in animal experimentation.
# (§2) The animals are treated chronically via the intraperitoneal route (IP) with amisulpride or physiological saline. The injections are performed twice a day, with an interval of about eight hours between each administration, over a period ranging between five days and three weeks. […] RB101 is administered on the day of the test intravenously (IV), 10 minutes before the start of the test (except for the measurements of locomotor activity performed immediately after injection).
# 3.2 Measurement of the Analgesia by the Hotplate Test
# The mice are placed individually inside a cylinder, on a plate heated to 52±1° C. by a water circuit. The lag time for the jumping of the mice is measured, the value 100 of the percentage of analgesia corresponding to a time limited to 240 seconds in order to avoid skin lesions. The test is performed 10 minutes after injection of RB101 (5 mg/kg, IV) or of the vehicle. The results are expressed as a percentage of analgesia calculated by means of the following formula: (mean of the jumping lag times for the treated group—mean of the jumping lag times for the control group)/(240−mean of the jumping lag times for the control group)×100. The results are expressed as mean ±sem.
# male mice of OF1 strain [2] = conditions: Baamonde et al., 1992; Browne, 1980; cited from earlier work
# male mice of OF1 strain [3] = conditions: Baamonde et al., 1992; cited from earlier work
# male mice of OF1 strain [4] = experiment: Measurement of the locomotor activity; format: in vivo
# male mice of OF1 strain [5] = experiment: Test of forced swimming (Porsolt's test): model of depression; format: in vivo; conditions: 0.25 mg/kg, IV
# Protocol: as §1, §2
# 3.3 Test of Forced Swimming (Porsolt's Test): Model of Depression
# The mice are placed individually in a cylindrical container filled to a height of 15 cm with water, the water being at room temperature. After a delay of 2 minutes, the total immobile time of the animal is measured for 4 minutes. The movements necessary for the animal to keep its head above water are not counted.
# male mice of OF1 strain [6] = experiment: Conditioned preference of place: measurement of the psychic dependency; format: in vivo
# Protocol: as §1, §2
# 3.4 Conditioned Preference of Place: Measurement of the Psychic Dependency
# The apparatus for conditioned preference of place consists of a box divided into three separate compartments: a black compartment with a smooth floor, a black and white stripy compartment with a rough floor, and a neutral central compartment.
# The Test Proceeds in 3 Phases:
# • a pretest phase: the animal is placed in the neutral central compartment and has free access to the three compartments of the apparatus for 20 minutes. The time spent in each compartment is recorded using a camera connected to a computer. The mice showing a spontaneous preference for one of the compartments (i.e. spending more than 75% of the allotted time in one of the side compartments) are removed from the experiment.
# After this first session, the animals are randomized in order to assign a treatment to them (morphine or physiological saline, SC) and the compartment in which they will receive the drug (black or black and white stripy compartment). […]
compound,measurement,setting,value
CSCC[C@H](N)CSSCC(Cc1ccccc1)C(=O)N[C@@H](Cc1ccccc1)C(=O)OCc1ccccc1 (stereo partly drawn) [RB101],"percentage of analgesia (hotplate, jumping lag time)","male mice of OF1 strain [1]; RB101 5 mg/kg IV on the day of the test, alone or after amisulpride treatment for five days (20 mg/kg IP twice/day)",38.4%±10.8%
same,"percentage of analgesia (hotplate, jumping lag time)","male mice of OF1 strain [1]; RB101 dose effect, 5 mg/kg intravenously, 10 minutes before the test, mean ±sem",45.2%±10.6%
same,effect of the substance alone on locomotor activity in mice (literature),male mice of OF1 strain [2],increase in locomotor activity
same,effect of RB101 alone on immobile time in forced swimming (literature),male mice of OF1 strain [3],reduces the immobile time
"CCC(=O)C(CC(C)N(C)C)(c1ccccc1)c1ccccc1 (stereo not drawn) [methadone, Methadone hydrochloride]",analgesia of methadone alone in the hotplate test,"male mice of OF1 strain [1]; 0.25 mg/kg, IV",pronounced analgesia
same,effect of methadone alone in locomotor activity,"male mice of OF1 strain [4]; 0.25 mg/kg, IV",did not show a significant effect
same,effect of methadone alone in forced swimming,male mice of OF1 strain [5],did not show a significant effect
same,effect of the substance alone on locomotor activity in mice (literature),male mice of OF1 strain [2],hyperlocomotor activity
"CN1CC[C@]23c4c5ccc(O)c4O[C@H]2[C@@H](O)C=C[C@H]3[C@H]1C5.Cl [morphine, morphine hydrochloride]",conditioned place preference (test 1),"male mice of OF1 strain [6]; morphine 10 mg/kg SC conditioning, relative to the saline solution group",Place preference is observed
same,conditioned place preference (test 2),"male mice of OF1 strain [6]; morphine-conditioned mice, amisulpride 20 mg/kg IP twice a day for 5 days, RB101 IV on the day of test 2 (sixth day), or no such treatment, relative to control group",tendency toward persistence of the place preference
same,conditioned place preference (test 3),"male mice of OF1 strain [6]; morphine-conditioned mice, four days after test 2, no RB101 on the day of test 3, with or without prior amisulpride+RB101 treatment",A place preference is found
CCN1CCCC1CNC(=O)c1cc(S(=O)(=O)CC)c(N)cc1OC (stereo not drawn) [amisulpride],dose at which the reduction in locomotor activity is significant,"male mice of OF1 strain [4]; doses tested 0.5, 2, 10, 20 and 50 mg/kg",≥ 10 mg/kg
